Reference: PubChem BioAssay (NCI)
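In this assay, cells in 96-well plates receive the compound at five concentrations for 48 hours. Endpoints are linearly interpolated between the surrounding concentrations. Abbreviation: GI50, concentration required for 50% inhibition of growth. Definition used: TGI = concentration required for complete inhibition of growth.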

Tests used:
Experiment in all cases: NCI anticancer screen, dose series, 48 h
CAKI-1 renal = tested on: CAKI-1 renal
IGROV1 ovarian = tested on: IGROV1 ovarian
SF-268 CNS = tested on: SF-268 CNS
BT-549 breast = tested on: BT-549 breast
MCF7 breast = tested on: MCF7 breast
U251 CNS = tested on: U251 CNS
HCC-2998 colon = tested on: HCC-2998 colon
HOP-92 NSCLC = tested on: HOP-92 NSCLC
A498 renal = tested on: A498 renal
SK-MEL-2 melanoma = tested on: SK-MEL-2 melanoma

| SMILES | GI50 (CAKI-1 renal) | TGI (CAKI-1 renal) | GI50 (IGROV1 ovarian) | TGI (IGROV1 ovarian) | GI50 (SF-268 CNS) | TGI (SF-268 CNS) | GI50 (BT-549 breast) | TGI (BT-549 breast) | GI50 (MCF7 breast) | TGI (MCF7 breast) | GI50 (U251 CNS) | TGI (U251 CNS) | GI50 (HCC-2998 colon) | TGI (HCC-2998 colon) | GI50 (HOP-92 NSCLC) | TGI (HOP-92 NSCLC) | GI50 (A498 renal) | TGI (A498 renal) | GI50 (SK-MEL-2 melanoma) | TGI (SK-MEL-2 melanoma) |
| --- | --- | --- | --- | --- | --- | --- | --- | --- | --- | --- | --- | --- | --- | --- | --- | --- | --- | --- | --- | --- |
| COCCn1cc(-c2nc(-c3cc4cccnc4[nH]3)cs2)c2cc(OC)ccc21 | 3010 nM | > 82.4 µM | 810 nM | > 34.5 µM | 3.82 µM | > 100 µM | 1800 nM | 7.66 µM | 43.3 nM | 2.67 µM | 3.6 µM | > 59.3 µM | 3.68 µM | 97.4 µM | 387 nM | 2.46 µM | 1860 nM | 6.18 µM | 3050 nM | 12.8 µM |
| NC(=S)N/N=C\c1nccc2c(C(F)(F)F)cccc12 | 312 nM | 8.73 µM | 365 nM | 14.8 µM | 0.27 µM | 21.6 µM | 395 nM | 7.71 µM | 317 nM | 13.3 µM | 0.224 µM | 8.4 µM | 0.411 µM | 15.4 µM | 226 nM | 1.35 µM | 433 nM | 10.6 µM | 461 nM | 8.34 µM |
| OC(c1cc(C(F)(F)F)nc2c(C(F)(F)F)cccc12)C1CCCCN1 (stereo not given) | 1780 nM | 4.67 µM | 2210 nM | 5.58 µM | 3.57 µM | 13.1 µM | 3240 nM | 8.67 µM | 1850 nM | 3.49 µM | 1.79 µM | 4.25 µM | 1.46 µM | 3.22 µM | 1010 nM | 3.69 µM | 1810 nM | 7.83 µM | 2310 nM | 4.16 µM |
| COc1ccc(C(c2cc(OC)c(OC)c(OC)c2)n2cncn2)cc1O (stereo not given) | 567 nM | > 100 µM | 959 nM | > 100 µM | 0.649 µM | > 100 µM | 618 nM | > 100 µM | 347 nM | > 100 µM | 0.446 µM | > 100 µM | 1.35 µM | > 100 µM | 9690 nM | > 100 µM | 324 nM | 0.957 µM | 361 nM | > 100 µM |
| NCCNCCNCCN | > 100000 nM | > 100 µM | > 100000 nM | > 100 µM | > 100 µM | > 100 µM | > 100000 nM | > 100 µM | > 100000 nM | > 100 µM | > 100 µM | > 100 µM | > 100 µM | > 100 µM | > 100000 nM | > 100 µM | > 100000 nM | > 100 µM | > 100000 nM | > 100 µM |
| COc1c2ccccc2c(OC)c2[nH]c(=O)ccc12 | 16200 nM | > 90.6 µM | 5730 nM | > 100 µM | 9.51 µM | > 100 µM | 2070 nM | 4.51 µM | 4370 nM | > 54.8 µM | 4 µM | > 69 µM | 13.2 µM | > 58.8 µM | 33500 nM | > 100 µM | 2040 nM | 4.75 µM | 4920 nM | > 75.8 µM |
| CC(=O)Nc1cc2ccc(=O)oc2cc1Cl | – | > 100 µM | – | > 100 µM | – | > 100 µM | – | > 100 µM | – | > 100 µM | – | > 100 µM | – | > 100 µM | – | > 100 µM | – | > 100 µM | – | > 100 µM |
| C=C(C)C(=O)O[C@@H]1C[C@@]2(C)O[C@@H]2C[C@H](O)/C(C)=C/[C@H]2OC(=O)C(=C)[C@@H]21 | – | 67.4 µM | – | > 100 µM | – | > 100 µM | – | > 100 µM | – | > 100 µM | – | > 100 µM | – | > 100 µM | – | > 100 µM | – | > 100 µM | – | > 100 µM |
| COc1cc(-c2nc3sccn3c2-c2ccnc(NCCNS(=O)(=O)c3ccc(F)cc3)n2)ccc1F | 2530 nM | > 100 µM | 1690 nM | > 100 µM | 2.78 µM | > 100 µM | 292 nM | > 100 µM | 2000 nM | > 100 µM | 4.23 µM | > 100 µM | 3.21 µM | > 100 µM | 2490 nM | > 100 µM | 2400 nM | > 100 µM | 2240 nM | 7.27 µM |
